Reference: US20180045744A1, “N[…] DRUG CONCENTRATIONS IN ORAL FLUIDS AND TESTING FOR POTENTIAL NON-[…] DRUG TREATMENT REGIMEN” (Ameritox, LLC, priority 2015, published 2018)

Test: Oral fluid testing: concentration of the primary metabolite (parent drug) in oral fluid of patients
Format: in vivo, human
Method: In some embodiments, the amount of a drug in a subject is determined by analyzing a fluid of the subject. The term “fluid” as used herein refers to oral fluid and any liquid or pseudo-liquid obtained from the oral cavity of the subject. Non-limiting examples include saliva, mucus, and the like. In an embodiment, the fluid is oral fluid.
Determining the amount of a drug in oral fluid of the subject may be accomplished by use of any method known to those skilled in the art. Non-limiting examples for determining the amount of a drug in fluid of a subject include fluorescence polarization immunoassay (“FPIA,” Abbott Diagnostics), mass spectrometry (MS), gas chromatography-mass spectrometry (GC-MS-MS), liquid chromatography-mass spectrometry (LC-MS-MS), and the like. In one embodiment, LC-MS-MS methods known to those skilled in the art are used to determine a raw level, amount or concentration of a drug in oral fluid of the subject. In one embodiment, a raw level or concentration of a drug in oral fluid of a subject is measured and reported as a ratio, percent, or in relationship to the amount of fluid. The amount of fluid may be expressed as a unit volume, for example, in L, mL, μL, pL, ounce, etc. In one embodiment, the raw amount of a drug in oral fluid of a subject may be expressed as an absolute level or value, for example, in g, mg, pg, ng, pg, etc.
(§1) The results (drug concentration of the primary metabolite), demographic information (gender, weight, height, and age), and the prescribed dosage of hydrocodone for fifty randomly selected patients—not included in the patient population used to design the models—were used to assess the validity and robustness of the models.
as §1, with “oxycodone” for “hydrocodone”

## COc1ccc2c3c1O[C@H]1C(=O)CC[C@H]4[C@@H](C2)N(C)CC[C@]314 [Hydrocodone, hydrocodone]
Example 1: subject, 180 lbs, 65 inches, 30 mg daily dose of hydrocodone
  concentration of the primary metabolite (parent drug) in oral fluid: 34 ng/mL
Example 2: subject, 225 lbs, 69 inches, 40 mg daily dose of hydrocodone
  concentration of the primary metabolite (parent drug) in the oral fluid: 101 ng/m I

## COc1ccc2c3c1O[C@H]1C(=O)CC[C@@]4(O)[C@@H](C2)N(C)CC[C@]314 [Oxycodone, oxycodone]
Example 3: subject, 254 lbs, 71 inches, 90 mg daily dose of oxycodone
  concentration of the primary metabolite (parent drug) in the oral fluid: 429 ng/mL
Example 4: subject, 113 lbs, 64 inches, 60 mg daily dose
  concentration of the primary metabolite (parent drug) in the oral fluid: 50 ng/mL
